{"source": "patent US9109041B2", "about": "“Analog compounds of analgesic peptides derived from the venom of crotalus durissus terrificus snakes, their uses, compositions, methods of preparation and purification” (priority 2004, dated 2015)", "key": {"[1]": {"system": "hyperalgesia induced by the Walker 256 tumor", "experiment": "hyperalgesia induced by the Walker 256 tumor (cancer pain)", "type": "in vivo, rat", "conditions": "saline + antagonist alone i.pl. (ICI 10, nor-BNI 50, CTOP 20 μg/paw); for pain threshold, FM / pain threshold, IM: 5th day; for pain threshold, FM: 2 hours after treatment; for pain threshold, IM: before treatment; for pain threshold, BM: before injection of the tumor", "description": "(§1) The Walker 256 tumor cells were kindly provided by Prof. Dr. Rui Curi, of the Physiology and Biophysics Department of the Biomedical Science Institute of the University of São Paulo. The tumor-bearing animal was sacrificed and the tumoral tissue was removed, placed on a Petri dish containing 0.9% saline. Then, the tumor was cut in smaller parts, and transferred into a beaker containing saline. The material was triturated with a fine-cut, until the tumor is totally fragmented. Then, this material was filtered in gauze and the liquid collected in a beaker. All procedures were performed on ice. The material of the beaker was transferred to 50 ml plastic tubes and centrifuged at 4° C., for 10 minutes, at 1200 rpm. After centrifugation, the supernatant was rejected and the precipitate resuspended in saline 0.9%. For cell counts, the suspension of cells was diluted (1:100) in saline. An aliquot (200 μl) was removed and placed in a test tube containing 200 μl of 1% Trypan blue. The cell number was determined in optical microscope using Neubauer's chamber. The cellular viability was determined considering viable the light-refracting cells.\n(§2) After determining the number of cells, 1 ml of the suspension, containing 1×10^7 cells, was injected by intraperitoneal route, on the right side of the rats to obtain liquid tumor (ascites).\n(§3) Five days after injection, the rats with ascites were sacrificed and the ascetic fluid collected from the peritoneal cavity and placed in a test tube containing EDTA. The liquid was diluted 100 times with phosphate-buffered saline (PBS), pH 7.4. The cell count was done after dilution with Trypan blue, as described above. Tumor cell count was ascertained to 1×10^6 cells in 100 μl, by dilution with PBS. This number of cells was determined in preliminary tests for induction of cancer pain in rats. In this final cell number adjustment, the volume of antibiotic (Benzetacil®) added to the suspension (150,000 units of antibiotic/10 ml of suspension), was taken into consideration. The antibiotic was used in order to avoid microbial contamination. The cells were injected by intraplantar route into one of the rat hind paws. Control animals were injected with PBS into the contralateral paw, in the same experimental conditions.\n(§4) Hyperalgesia, allodynia and spontaneous pain were determined before (BM-basal measurement) and 5 days after tumor cell injection, before (IM-initial measurement) and 2 hours after (FM-Final measurement) peptide administration.\n(§5) The results were analyzed comparing the mean values of the basal and initial measurements, or of the initial and final measurements or, when determined, by comparing the mean values obtained in the different experimental groups (Tables 17, 18, 19).\n(§6) For this purpose, the animals were treated with CTOP, a specific μ receptor antagonist (20 μg/paw), nor-BNI, a specific κ receptor antagonist (50 μg/paw) or with ICI 174,864, a specific δ receptor antagonist (10 μg/paw). The antagonists were injected by intraplantar route. The peptide was administered in the dose of 6 μg/kg, orally, immediately before the injection of the opioid antagonists. The results were analyzed comparing the mean values of the basal and initial measurements, or of the initial and final measurements or, when determined, by comparing the mean values obtained in the different experimental groups ( Table 20)."}, "[2]": {"system": "allodynia induced by the Walker 256 tumor", "experiment": "allodynia induced by the Walker 256 tumor (cancer pain)", "type": "in vivo, rat", "conditions": "saline + antagonist alone i.pl. (ICI 10, nor-BNI 50, CTOP 20 μg/paw); for paw withdrawal threshold (allodynia), FM / paw withdrawal threshold (allodynia), IM: 5th day; for paw withdrawal threshold (allodynia), FM: 2 hours after treatment; for paw withdrawal threshold (allodynia), IM: before treatment; for paw withdrawal threshold (allodynia), BM: before injection of the tumor", "description": "as §1, §2, §3, §4, §5, §6"}, "[3]": {"system": "hyperalgesia induced by chronic constriction of the sciatic nerve", "experiment": "hyperalgesia induced by chronic constriction of the sciatic nerve (rat paw pressure test)", "type": "in vivo", "conditions": "saline + antagonist alone i.pl. (ICI 10, nor-BNI 50, CTOP 20 μg/paw); for pain threshold, FM 1 h: 1 h after treatment; for pain threshold, MF 3 h: 3 h after treatment; for pain threshold, BM: before surgery; for pain threshold, IM: day 14, before treatment", "method": "For the induction of neuropathic pain, surgery was performed in the sciatic nerve, in accordance with the method described by Bennett, G. J and Xie, Y. K. (Pain, 33:87-107, 1988). The animals were anesthetized with halothane. The sciatic nerve was exposed in the middle region of the thigh, moving away the femoral biceps muscle. Close to the trifurcation of the sciatic nerve, 7 mm of distance from the trifurcation, 4 loose ligations were performed (chromed catgut 4-0) around it, distant from each other in approximately 1 mm. The bindings were performed along the nerve, up to 4-5 mm from the initial point. The incision was sutured in layers, using silk suture thread number 4-0.\nThe test was applied before (BM-basal measurement) and on the 14th day after the surgery, to characterize the development of neuropathic pain.\nThe results were analyzed by comparing the means of the basal and initial measurements or by comparing the means of the initial and final measurements or, when determined, through the comparison of the means obtained in the different experimental groups.\nFor this purpose, the animals were treated with CTOP, a specific μ receptor antagonist (20 μg/paw), nor-BNI, a specific κ receptor antagonist (50 μg/paw) or with ICI 174,864, a specific δ receptor antagonist (10 μg/paw). The antagonists were injected, by intraplantar route. The peptide was administered in the dose of 5 μg/kg, orally, immediately before the injection of the opioid antagonists.\nThe results were analyzed comparing the mean values of the basal and initial measurements, or of the initial and final measurements or, when determined, by comparing the mean values obtained in the different experimental groups (Tables 15 and 16)."}}, "data": [{"compound": "Oc1ccc2c3c1O[C@H]1c4[nH]c5c(c4C[C@@]4(O)[C@@H](C2)N(CC2CC2)CC[C@]314)C[C@@]1(O)[C@H]2Cc3ccc(O)c4c3[C@@]1(CCN2CC1CC1)[C@H]5O4", "note": "[nor-BNI, nor-Binalthorphimine, reference compound]", "values": [{"measurement": "pain threshold, FM", "setting": "[1]", "value": "32 ± 1.66", "unit": "g"}, {"measurement": "pain threshold, IM", "setting": "[1]", "value": "33 ± 3.33", "unit": "g"}, {"measurement": "pain threshold, BM", "setting": "[1]", "value": "70 ± 2.88", "unit": "g"}, {"measurement": "paw withdrawal threshold (allodynia), FM", "setting": "[2]", "value": "4.41 ± 0.00 log 10 (mg × 10)"}, {"measurement": "paw withdrawal threshold (allodynia), IM", "setting": "[2]", "value": "4.41 ± 0.00 log 10 (mg × 10)"}, {"measurement": "paw withdrawal threshold (allodynia), BM", "setting": "[2]", "value": "4.97 ± 0.00 log 10 (mg × 10)"}, {"measurement": "pain threshold, FM 1 h", "setting": "[3]", "value": "32 ± 1.22", "unit": "g"}, {"measurement": "pain threshold, MF 3 h", "setting": "[3]", "value": "31 ± 1.00", "unit": "g"}, {"measurement": "pain threshold, BM", "setting": "[3]", "value": "72 ± 1.22", "unit": "g"}, {"measurement": "pain threshold, IM", "setting": "[3]", "value": "32 ± 1.22", "unit": "g"}]}, {"compound": "CTOP [reference compound]", "values": [{"measurement": "pain threshold, FM", "setting": "[1]", "value": "32 ± 1.66", "unit": "g"}, {"measurement": "pain threshold, IM", "setting": "[1]", "value": "35 ± 2.88", "unit": "g"}, {"measurement": "pain threshold, BM", "setting": "[1]", "value": "68 ± 1.66", "unit": "g"}, {"measurement": "paw withdrawal threshold (allodynia), FM", "setting": "[2]", "value": "4.41 ± 0.00 log 10 (mg × 10)"}, {"measurement": "paw withdrawal threshold (allodynia), IM", "setting": "[2]", "value": "4.41 ± 0.00 log 10 (mg × 10)"}, {"measurement": "paw withdrawal threshold (allodynia), BM", "setting": "[2]", "value": "4.97 ± 0.00 log 10 (mg × 10)"}, {"measurement": "pain threshold, FM 1 h", "setting": "[3]", "value": "30 ± 1.58", "unit": "g"}, {"measurement": "pain threshold, MF 3 h", "setting": "[3]", "value": "30 ± 1.58", "unit": "g"}, {"measurement": "pain threshold, BM", "setting": "[3]", "value": "72 ± 1.22", "unit": "g"}, {"measurement": "pain threshold, IM", "setting": "[3]", "value": "28 ± 1.22", "unit": "g"}]}]}
